# Measured values reported in ChEMBL document CHEMBL1145343, “Inhibition of kinesin motor proteins by adociasulfate-2” (J Med Chem, 2006).
# pIC50: −log10 of the molar value.
# Experiments:
# [1] = target: T1, Kinesin-like protein KIF11 (Homo sapiens, UniProt P52732); test: Inhibition of kinesin ATPase activity by enzyme-linked inorganic phosphate detection assay without preincubation
# T1 sequence (P52732 whole entry): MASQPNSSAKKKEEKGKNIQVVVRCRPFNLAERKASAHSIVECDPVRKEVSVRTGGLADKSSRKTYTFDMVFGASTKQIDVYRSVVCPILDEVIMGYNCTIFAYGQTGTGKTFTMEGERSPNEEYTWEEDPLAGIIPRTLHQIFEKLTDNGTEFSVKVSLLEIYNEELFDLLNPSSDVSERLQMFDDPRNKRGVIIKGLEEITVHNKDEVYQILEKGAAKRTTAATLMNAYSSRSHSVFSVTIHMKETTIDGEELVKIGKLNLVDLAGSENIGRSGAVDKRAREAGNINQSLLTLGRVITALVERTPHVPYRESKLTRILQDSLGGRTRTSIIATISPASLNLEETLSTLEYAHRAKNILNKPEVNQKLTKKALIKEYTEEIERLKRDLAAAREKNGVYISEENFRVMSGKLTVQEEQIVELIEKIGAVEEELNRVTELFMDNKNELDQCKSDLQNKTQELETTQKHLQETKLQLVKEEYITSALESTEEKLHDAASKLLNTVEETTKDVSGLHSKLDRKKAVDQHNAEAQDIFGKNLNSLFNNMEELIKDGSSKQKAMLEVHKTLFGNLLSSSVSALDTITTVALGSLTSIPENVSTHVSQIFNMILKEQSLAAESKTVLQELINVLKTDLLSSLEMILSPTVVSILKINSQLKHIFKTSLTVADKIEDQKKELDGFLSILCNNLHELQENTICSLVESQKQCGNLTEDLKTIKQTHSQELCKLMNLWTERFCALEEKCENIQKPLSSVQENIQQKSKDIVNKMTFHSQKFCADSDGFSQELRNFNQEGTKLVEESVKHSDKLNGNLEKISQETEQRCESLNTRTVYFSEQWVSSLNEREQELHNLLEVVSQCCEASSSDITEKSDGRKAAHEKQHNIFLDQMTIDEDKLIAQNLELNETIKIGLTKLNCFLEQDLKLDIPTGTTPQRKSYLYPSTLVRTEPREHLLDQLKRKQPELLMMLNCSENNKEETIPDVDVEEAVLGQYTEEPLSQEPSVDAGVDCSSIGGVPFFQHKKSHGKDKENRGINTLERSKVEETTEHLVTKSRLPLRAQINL
# [2] = target: T1, Kinesin-like protein KIF11; test: Inhibition of kinesin ATPase activity by enzyme-linked inorganic phosphate detection assay with 5 mins pre-incubation
structure (smiles),measurement,setting,value
CC1(C)CCC[C@]2(C)O[C@H]3CC[C@@]4(C)[C@@H](CC[C@]5(C)[C@@H]4CC[C@]4(C)c6c(OS(=O)(=O)O)ccc(OS(=O)(=O)O)c6C[C@@H]54)[C@]3(C)CC[C@@H]12 [ADOCIASULFATE-2],pIC50,[1],4.86
same,pIC50,[2],5.14
